# Assay results as given in patent US20070117770A1, “Human ribosomal DNA (rDNA) and ribosomal RNA (rRNA) nucleic acids and uses thereof” (Cylene Pharmaceuticals, Inc., priority 2005, published 2007).
# Columns and labels:
# Assay in all cases: Protein kinase inhibition assay
# Assay type in all cases: biochemical
# [1] = biological target: FGFR3(h) (Homo sapiens, UniProt P22607); conditions: read-out: percent residual activity of FGFR3(h)
# Method: (§1) Certain compounds were tested for activity in protein kinase inhibition assays. All substrates were dissolved and diluted to working stocks in de-ionized water, apart from histone H1 (10× working stock in 20 mM MOPS pH 7.0), PDKtide (10× working stock in 50 mM Tris pH 7.0) ATF2 (which is typically stored at a 20× working stock in 50 mM Tris pH 7.5, 150 mM NaCl, 0.1 mM EGTA, 0.03% Brij-35, 50% glycerol, 1 mM benzamidine, 0.2 mM PMSF and 0.1% R-mercaptoethanol), KKLNRTLSFAEPG (SEQ ID NO:203) and RRRLSFAEPG (SEQ ID NO:204) (50 mM HEPES pH 7.4) and GGEEEEYFELVKKKK (SEQ ID NO:205) (20 mM MOPS pH 7.0). All kinases were pre-diluted to a 10× working concentration prior to addition into the assay. The composition of the dilution buffer for each kinase is detailed below.
# (§2) In a final reaction volume of 25 μl, FGFR3 (h) (5-10 mU) is incubated with 8 mM MOPS pH 7.0, 0.2 mM EDTA, 0.1 mg/ml poly(Glu, Tyr) 4:1, 10 mM MnCl2, 10 mM MgAcetate and [y-33P-ATP] (specific activity approx. 500 cpm/pmol, concentration as required). The reaction is initiated by the addition of the MgATP mix. After incubation for 40 minutes at room temperature, the reaction is stopped by the addition of 5 μl of a 3% phosphoric acid solution. 10 μl of the reaction is then spotted onto a Filtermat A and washed three times for 5 minutes in 75 mM phosphoric acid and once in methanol prior to drying and scintillation counting.
# [2] = biological target: PKCγ(h) (Homo sapiens, UniProt P05129); conditions: read-out: percent residual activity of PKCγ(h)
# Method: as §1
# In a final reaction volume of 25 μl, PKCγ (h) (5-10 mU) is incubated with 20 mM HEPES pH 7.4, 0.03% Triton X-100, […], 0.1 mg/ml phosphatidylserine, 10 μg/ml diacylglycerol, 0.1 mg/ml histone H1, 10 mM MgAcetate and [gamma-33P-ATP] (specific activity approx. 500 cpm/pmol, concentration as required). The reaction is initiated by the addition of the MgATP mix. After incubation for 40 minutes at room temperature, the reaction is stopped by the addition of 5 μl of a 3% phosphoric acid solution. […]
# [3] = biological target: ROCK-II(h) (Homo sapiens, UniProt O75116); conditions: read-out: percent residual activity of ROCK-II(h)
# Method: as §1
# as §2, with “ROCK-II” for “FGFR3”, “50” for “8”, “Tris” for “MOPS”, “7.5,” for “7.0, 0.2 mM EDTA,”, “[…] EGTA, 30 μM […] (SEQ ID NO:222),” for “mg/ml poly(Glu, Tyr) 4:1, 10 mM MnCl2,”, “P30 filtermat” for “Filtermat A”
# [4] = biological target: JAK2(h) (Homo sapiens, UniProt O60674); conditions: read-out: percent residual activity of JAK2(h)
# Method: as §1
# as §2, with “JAK2” for “FGFR3”, “100 μM […] (SEQ ID NO:217),” for “0.1 mg/ml poly(Glu, Tyr) 4:1, 10 mM MnCl2,”, “[gamma-33P-ATP]” for “[y-33P-ATP]”, “P30 filtermat” for “Filtermat A”
# [5] = biological target: PKCμ(h) (Homo sapiens, UniProt Q15139); conditions: read-out: percent residual activity of PKCμ(h)
# Method: as §1
# as §2, with “PKCμ” for “FGFR3”, “20” for “8”, “REPES” for “MOPS”, “7.4, 0.03% Triton X-100, 30 μM KKLNRTLSVA (SEQ ID NO:212),” for “7.0, 0.2 mM EDTA, 0.1 mg/ml poly(Glu, Tyr) 4:1, 10 mM MnCl2,”, “[gamma-33P-ATP]” for “[y-33P-ATP]”, “P30 filtermat” for “Filtermat A”
# [6] = biological target: PKBγ(h) (Homo sapiens, UniProt Q9Y243); conditions: read-out: percent residual activity of PKBγ(h)
# Method: as §1
# as §2, with “PKBγ” for “FGFR3”, “30 μM GRPRTSSFAEGKK (SEQ ID NO:232),” for “0.1 mg/ml poly(Glu, Tyr) 4:1, 10 mM MnCl2,”, “[gamma-33P-ATP]” for “[y-33P-ATP]”, “P30 filtermat” for “Filtermat A”
# FGFR3(h), sequence (P22607 23-806): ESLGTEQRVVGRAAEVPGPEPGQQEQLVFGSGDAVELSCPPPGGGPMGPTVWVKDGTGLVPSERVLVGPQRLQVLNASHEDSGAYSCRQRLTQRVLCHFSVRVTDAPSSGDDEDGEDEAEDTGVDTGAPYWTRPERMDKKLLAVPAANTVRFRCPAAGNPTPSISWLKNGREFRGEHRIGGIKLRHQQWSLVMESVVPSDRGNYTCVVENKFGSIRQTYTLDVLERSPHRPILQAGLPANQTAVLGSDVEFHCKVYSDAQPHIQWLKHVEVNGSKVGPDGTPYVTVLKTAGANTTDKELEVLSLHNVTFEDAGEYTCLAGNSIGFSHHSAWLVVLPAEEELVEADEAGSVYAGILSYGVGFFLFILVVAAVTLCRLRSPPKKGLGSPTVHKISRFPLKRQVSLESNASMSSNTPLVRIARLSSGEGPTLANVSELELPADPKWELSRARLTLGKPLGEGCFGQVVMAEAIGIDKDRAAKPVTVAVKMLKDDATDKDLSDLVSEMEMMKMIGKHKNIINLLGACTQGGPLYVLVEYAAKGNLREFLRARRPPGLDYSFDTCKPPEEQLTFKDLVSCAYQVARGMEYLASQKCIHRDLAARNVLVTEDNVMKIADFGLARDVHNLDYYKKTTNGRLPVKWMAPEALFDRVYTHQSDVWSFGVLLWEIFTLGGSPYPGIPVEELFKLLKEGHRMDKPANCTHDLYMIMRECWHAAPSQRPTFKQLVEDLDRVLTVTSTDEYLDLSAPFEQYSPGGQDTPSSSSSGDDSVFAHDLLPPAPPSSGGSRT
# PKCμ(h), sequence (Q15139 whole entry): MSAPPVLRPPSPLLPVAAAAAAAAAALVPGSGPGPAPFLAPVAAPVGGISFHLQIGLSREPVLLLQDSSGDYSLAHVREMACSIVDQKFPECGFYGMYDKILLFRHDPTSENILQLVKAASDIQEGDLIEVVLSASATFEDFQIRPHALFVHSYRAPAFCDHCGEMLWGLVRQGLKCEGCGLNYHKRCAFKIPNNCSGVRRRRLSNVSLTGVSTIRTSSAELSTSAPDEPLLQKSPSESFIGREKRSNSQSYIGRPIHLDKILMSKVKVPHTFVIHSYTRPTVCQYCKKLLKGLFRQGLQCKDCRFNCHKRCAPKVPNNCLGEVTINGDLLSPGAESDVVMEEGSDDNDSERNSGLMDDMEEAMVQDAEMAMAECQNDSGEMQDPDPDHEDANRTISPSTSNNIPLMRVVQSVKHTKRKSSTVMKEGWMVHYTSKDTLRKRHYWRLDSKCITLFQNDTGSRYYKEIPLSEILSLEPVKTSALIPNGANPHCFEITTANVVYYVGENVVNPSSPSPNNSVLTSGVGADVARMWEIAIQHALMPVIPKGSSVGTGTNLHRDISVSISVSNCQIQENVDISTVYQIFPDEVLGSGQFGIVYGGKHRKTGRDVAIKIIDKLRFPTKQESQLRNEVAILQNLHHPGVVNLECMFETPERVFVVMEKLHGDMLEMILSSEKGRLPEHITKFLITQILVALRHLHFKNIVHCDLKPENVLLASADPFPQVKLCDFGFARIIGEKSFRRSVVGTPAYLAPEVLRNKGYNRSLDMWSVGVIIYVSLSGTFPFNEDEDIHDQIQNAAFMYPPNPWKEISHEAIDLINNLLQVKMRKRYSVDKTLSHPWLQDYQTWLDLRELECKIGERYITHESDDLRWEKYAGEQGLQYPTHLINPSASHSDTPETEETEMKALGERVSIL
# ROCK-II(h), sequence (O75116 whole entry): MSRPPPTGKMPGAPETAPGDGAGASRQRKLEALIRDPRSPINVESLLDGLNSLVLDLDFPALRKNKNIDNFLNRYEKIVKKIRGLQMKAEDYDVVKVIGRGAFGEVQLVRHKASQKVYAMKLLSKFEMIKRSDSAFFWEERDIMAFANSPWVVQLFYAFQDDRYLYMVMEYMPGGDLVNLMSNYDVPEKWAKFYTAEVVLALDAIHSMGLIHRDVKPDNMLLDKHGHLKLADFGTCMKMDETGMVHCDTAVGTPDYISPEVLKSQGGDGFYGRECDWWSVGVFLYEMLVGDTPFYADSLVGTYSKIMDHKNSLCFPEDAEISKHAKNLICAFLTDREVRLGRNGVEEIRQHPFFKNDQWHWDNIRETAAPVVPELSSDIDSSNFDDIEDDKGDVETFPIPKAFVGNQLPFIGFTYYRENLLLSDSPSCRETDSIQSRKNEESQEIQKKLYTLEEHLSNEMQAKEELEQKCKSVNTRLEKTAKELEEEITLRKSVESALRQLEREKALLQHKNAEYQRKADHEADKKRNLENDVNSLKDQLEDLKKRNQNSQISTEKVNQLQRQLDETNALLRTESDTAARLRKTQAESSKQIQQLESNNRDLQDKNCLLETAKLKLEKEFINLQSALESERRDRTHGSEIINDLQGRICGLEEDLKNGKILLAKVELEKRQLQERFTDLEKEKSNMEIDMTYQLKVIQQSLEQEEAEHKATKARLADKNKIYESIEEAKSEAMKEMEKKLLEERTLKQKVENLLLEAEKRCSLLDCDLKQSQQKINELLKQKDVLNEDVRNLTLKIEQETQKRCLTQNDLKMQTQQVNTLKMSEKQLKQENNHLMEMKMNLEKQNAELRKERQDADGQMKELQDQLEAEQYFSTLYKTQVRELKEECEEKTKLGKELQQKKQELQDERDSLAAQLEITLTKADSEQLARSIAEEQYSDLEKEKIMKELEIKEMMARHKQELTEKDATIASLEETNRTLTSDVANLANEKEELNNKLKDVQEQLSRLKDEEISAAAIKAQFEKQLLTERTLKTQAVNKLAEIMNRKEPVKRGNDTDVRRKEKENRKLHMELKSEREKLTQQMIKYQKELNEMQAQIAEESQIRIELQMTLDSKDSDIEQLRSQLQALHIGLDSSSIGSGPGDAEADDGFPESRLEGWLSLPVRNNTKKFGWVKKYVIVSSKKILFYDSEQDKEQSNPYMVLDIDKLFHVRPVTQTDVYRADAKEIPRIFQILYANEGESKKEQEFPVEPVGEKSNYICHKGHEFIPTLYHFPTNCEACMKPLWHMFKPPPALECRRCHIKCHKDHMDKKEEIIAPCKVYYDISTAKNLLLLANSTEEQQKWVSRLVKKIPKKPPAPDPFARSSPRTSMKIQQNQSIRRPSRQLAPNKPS
# JAK2(h), sequence (O60674 whole entry): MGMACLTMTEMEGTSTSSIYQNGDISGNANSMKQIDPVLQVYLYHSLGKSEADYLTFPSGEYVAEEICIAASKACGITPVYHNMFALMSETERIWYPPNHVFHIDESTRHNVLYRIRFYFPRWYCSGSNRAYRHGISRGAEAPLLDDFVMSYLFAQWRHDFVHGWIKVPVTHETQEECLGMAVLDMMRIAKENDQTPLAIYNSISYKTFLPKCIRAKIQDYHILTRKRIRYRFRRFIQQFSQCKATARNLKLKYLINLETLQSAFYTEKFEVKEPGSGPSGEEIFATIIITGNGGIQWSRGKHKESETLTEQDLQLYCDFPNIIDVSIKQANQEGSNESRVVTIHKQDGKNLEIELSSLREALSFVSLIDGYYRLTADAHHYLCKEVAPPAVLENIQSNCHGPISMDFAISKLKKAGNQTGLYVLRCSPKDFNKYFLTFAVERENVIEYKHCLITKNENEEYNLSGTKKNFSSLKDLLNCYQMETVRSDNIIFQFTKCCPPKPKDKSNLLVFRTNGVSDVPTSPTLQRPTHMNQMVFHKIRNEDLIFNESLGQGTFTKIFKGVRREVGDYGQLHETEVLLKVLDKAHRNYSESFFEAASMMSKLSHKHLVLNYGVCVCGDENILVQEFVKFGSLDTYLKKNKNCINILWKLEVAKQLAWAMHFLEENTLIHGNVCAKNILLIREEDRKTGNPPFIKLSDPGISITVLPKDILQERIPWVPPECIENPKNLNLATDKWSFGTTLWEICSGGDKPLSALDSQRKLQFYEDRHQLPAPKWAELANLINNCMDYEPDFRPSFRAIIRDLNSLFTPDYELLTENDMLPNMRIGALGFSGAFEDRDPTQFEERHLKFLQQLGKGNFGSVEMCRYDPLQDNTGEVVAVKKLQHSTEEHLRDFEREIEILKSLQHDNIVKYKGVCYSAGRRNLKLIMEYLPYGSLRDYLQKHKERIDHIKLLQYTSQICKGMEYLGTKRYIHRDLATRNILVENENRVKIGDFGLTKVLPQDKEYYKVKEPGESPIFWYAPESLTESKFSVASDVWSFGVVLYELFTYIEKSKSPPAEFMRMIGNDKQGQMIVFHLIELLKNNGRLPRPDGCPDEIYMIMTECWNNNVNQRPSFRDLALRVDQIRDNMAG
remaining activity at 2.5 µM [1] [%],remaining activity at 2.5 µM [2] [%],remaining activity at 2.5 µM [3] [%],remaining activity at 2.5 µM [4] [%],remaining activity at 2.5 µM [5] [%],remaining activity at 2.5 µM [6] [%],Structure (SMILES)
101,110,64,105,49,64,CN1CCCC1CCNC(=O)c1cn2c3c(c(N4CCC(c5cnccn5)C4)c(F)cc3c1=O)Oc1cc3ccccc3cc1-2 (stereo not drawn) [Compound A-1]
116,102,115,116,94,95,CC(=O)N1CCN(c2ccc3c(=O)c(C(=O)NCCN4CCCC4)c4n(C)c5ccccc5n4c3n2)CC1 [Compound B-1]
